US7659289B2, “Hydroxyethylene-based β-secretase inhibitors and use thereof” (CoMentis, Inc., priority 2004, dated 2010)

Assays:
[1] = target: memapsin 2 (Homo sapiens, UniProt P56817); test: Inhibition of memapsin 2 beta-secretase activity toward fluorogenic substrate FS-2; assay type: biochemical; conditions: pH 4, 37° C., 20 minutes pre-incubation, fluorogenic substrate FS-2, tight-binding model; read-out: M2 Ki
[2] = target: Cathepsin D (Homo sapiens, UniProt P07339); test: Inhibition of cathepsin D activity (MALDI-TOF, substrate peptide […]); assay type: biochemical; conditions: pH 4.1, 37 degrees C., read-out: Cath D Ki
Cathepsin D, sequence (P07339 65-412, species assumed): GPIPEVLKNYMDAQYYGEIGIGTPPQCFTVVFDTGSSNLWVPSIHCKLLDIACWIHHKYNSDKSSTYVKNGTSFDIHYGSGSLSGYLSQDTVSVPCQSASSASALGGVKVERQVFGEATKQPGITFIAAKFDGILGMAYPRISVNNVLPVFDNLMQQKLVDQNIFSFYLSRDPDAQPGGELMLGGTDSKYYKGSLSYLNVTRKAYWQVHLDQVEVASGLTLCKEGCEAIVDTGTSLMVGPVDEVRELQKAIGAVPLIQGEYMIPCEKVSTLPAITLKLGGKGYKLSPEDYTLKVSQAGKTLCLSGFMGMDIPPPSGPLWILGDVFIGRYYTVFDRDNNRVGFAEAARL
Experimental: After equilibration at 37 degrees C., the reactions were initiated by the addition of an aliquot of memapsin 2. Aliquots were removed at time intervals, and combined with an equal volume of MALDI-TOF matrix (α-hydroxycinnamic acid in acetone, 20 mg/ml) and immediately spotted in duplicate onto a stainless-steel MALDI sample plate. MALDI-TOF mass spectrometry was performed on a PE Biosystems Voyager DE instrument at the Molecular Biology Resource Center on campus. The instrument was operated at 25,000 accelerating volts in positive mode with a 150 ns delay. Ions with a mass-to-charge ratio (m/z) were detected in the range of 650-2000 atomic mass units. Data was analyzed by the Voyager Data Explorer module to obtain ion intensity data for mass species of substrates and corresponding products in a given mixture. Relative product formation was calculated as the ratio of signal intensity of the product to the sum of signal intensities of both product and the corresponding substrate. Relative product formed per unit time was obtained from non-linear regression analysis of the data representing the initial 15% formation of product using the model: 1−e^−kT,
where k is the relative hydrolytic rate constant and T is time in seconds. Initial rates were expressed relative to uninhibited controls and fit to a tight-binding model of competitive inhibition as above.

[3] = test system: Aβ production; test: Cellular Aβ IC50 determination (Aβ40 sandwich ELISA); assay type: cell-based; conditions: Cricetulus griseus; Aβ40, Chinese hamster ovary cells over-expressing human APP695 with London and Swedish mutations, 24 h incubation
Experimental: The potency of compounds against memapsin 2 activity was determined in a cellular assay of Aβ production. […] Chinese hamster ovary cells that over-express human APP695 with the London and Swedish mutations were seeded in multi-well plates at 10% confluency. Compounds were dissolved in DMSO to concentrations near 1 mM, and diluted into culture media to a final concentration near 4 μM (final 0.4% DMSO). Compounds were diluted serially and applied to cells in multi-well plates 48 h after seeding. Incubation was continued in 5% CO2 at 37 degrees C. for 24 h. Aliquots were removed and assayed for Aβ40 content using a sandwich ELISA (BioSource International). Amount of Aβ40 over the range of concentration of compounds, relative to control incubations, were fit to a 4-parameter IC50 model.

memapsin 2, sequence (P56817 46-501): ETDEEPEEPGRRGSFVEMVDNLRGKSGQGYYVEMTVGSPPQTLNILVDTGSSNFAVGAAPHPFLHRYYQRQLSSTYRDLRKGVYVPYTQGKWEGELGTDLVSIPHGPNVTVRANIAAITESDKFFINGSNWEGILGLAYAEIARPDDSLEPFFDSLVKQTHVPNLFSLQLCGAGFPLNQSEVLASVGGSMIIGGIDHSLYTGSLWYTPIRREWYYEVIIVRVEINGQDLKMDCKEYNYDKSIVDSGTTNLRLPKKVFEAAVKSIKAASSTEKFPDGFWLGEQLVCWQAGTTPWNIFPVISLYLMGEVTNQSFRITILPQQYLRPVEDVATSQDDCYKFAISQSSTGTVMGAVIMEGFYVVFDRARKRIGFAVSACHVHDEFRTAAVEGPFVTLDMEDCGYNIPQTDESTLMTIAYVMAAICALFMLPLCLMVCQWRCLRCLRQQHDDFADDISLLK

SMILES	Ki [1]	Ki [2]	IC50 [3]
CC[C@@H](Cn1nc(C)cc1C)C(=O)N[C@@H](CNC(=O)OC(C)(C)C)C(=O)N[C@@H](CC(C)C)[C@@H](O)C[C@@H](C)C(=O)N[C@H](C(=O)NCC(F)(F)F)C(C)C [tert-butyl (S)-2-((S)-2-((3,5-dimethyl-1H-pyrazol-1-yl)methyl)butanamido)-3-((4S,5S,7R)-5-hydroxy-2,7-dimethyl-8-((S)-3-methyl-1-oxo-1-(2,2,2-trifluoroethylamino)butan-2-ylamino)-8-oxooctan-4-ylamino)-3-oxopropylcarbamate]	< 100 nM	< 100 nM	6000 to 100000 nM
Cc1csc(C[C@H](C)C(=O)N[C@@H](CNC(=O)OC(C)(C)C)C(=O)N[C@@H](Cc2ccccc2)[C@@H](O)C[C@@H](C)C(=O)N[C@H](C(=O)NCC(C)C)C(C)C)n1 [tert-butyl (S)-3-((2S,3S,5 R)-3-hydroxy-6-((S)-1-(isobutylamino)-3-methyl-1-oxobutan-2-ylamino)-5-methyl-6-oxo-1-phenylhexan-2-ylamino)-2-((S)-2-methyl-3-(4-methylthiazol-2-yl)propanamido)-3-oxopropylcarbamate]	< 100 nM	< 100 nM	6000 to 100000 nM
Cc1csc(COC(=O)NC[C@H](NC(=O)[C@@H](C)Cc2nc(C)cs2)C(=O)N[C@@H](CC(C)C)[C@@H](O)C[C@@H](C)C(=O)N[C@H](C(=O)NCC(C)C)C(C)C)n1 [(4-methylthiazol-2-yl)methyl (S)-3-((4S,5S,7R)-5-hydroxy-8-((S)-1-(isobutylamino)-3-methyl-1-oxobutan-2-ylamino)-2,7-dimethyl-8-oxooctan-4-ylamino)-2-((S)-2-methyl-3-(4-methylthiazol-2-yl)propanamido)-3-oxopropylcarbamate]	< 100 nM	< 100 nM	< 6000 nM
CC(=O)NC[C@H](NC(=O)[C@@H](C)Cc1nc(C)cs1)C(=O)N[C@@H](CC(C)C)[C@@H](O)C[C@@H](C)C(=O)N[C@H](C(=O)NCC(C)C)C(C)C [(2R,4S,5S)-5-((S)-3-acetamido-2-((S)-2-methyl-3-(4-methylthiazol-2-yl)propanamido)propanamido)-4-hydroxy-N-((S)-1-(isobutylamino)-3-methyl-1-oxobutan-2-yl)-2,7-dimethyloctanamide]	< 100 nM	100 to 600 nM	6000 to 100000 nM
Cc1csc(C[C@H](C)C(=O)N[C@@H](CN(C)S(C)(=O)=O)C(=O)N[C@@H](CC(C)C)[C@@H](O)C[C@@H](C)C(=O)N[C@H](C(=O)NCC(C)C)C(C)C)n1 [(2R,4S,5S)-4-hydroxy-N-((S)-1-(isobutylamino)-3-methyl-1-oxobutan-2-yl)-2,7-dimethyl-5-((S)-2-((S)-2-methyl-3-(4-methylthiazol-2-yl)propanamido)-3-(N-methylmethylsulfonamido)propanamido)octanamide]	100 to 600 nM		6000 to 100000 nM
CC[C@@H](Cc1nc(C)cs1)C(=O)N[C@@H](CNC(=O)OC(C)(C)C)C(=O)N[C@@H](CC(C)C)[C@@H](O)C[C@@H](C)C(=O)N[C@H](C(=O)NCC(C)C)C(C)C [tert-butyl (S)-3-((4S,5S,7R)-5-hydroxy-8-((S)-1-(isobutylamino)-3-methyl-1-oxobutan-2-ylamino)-2,7-dimethyl-8-oxooctan-4-ylamino)-2-((S)-2-((4-methylthiazol-2-yl)methyl)butanamido)-3-oxopropylcarbamate]	< 100 nM	< 100 nM	< 6000 nM
Cc1nc(C[C@H](C)C(=O)N[C@@H](CNC(=O)OC(C)(C)C)C(=O)N[C@@H](CC(C)C)[C@@H](O)C[C@@H](C)C(=O)N[C@H](C(=O)NCC(C)C)C(C)C)c(C)o1 [tert-butyl (S)-2-((S)-3-(2,5-dimethyloxazol-4-yl)-2-methylpropanamido)-3-((4S,5S,7R)-5-hydroxy-8-((S)-1-(isobutylamino)-3-methyl-1-oxobutan-2-ylamino)-2,7-dimethyl-8-oxooctan-4-ylamino)-3-oxopropylcarbamate]	< 100 nM	< 100 nM	< 6000 nM
Cc1cc(C)n(CC(N=[N+]=[N-])C(=O)N[C@@H](CNC(=O)OC(C)(C)C)C(=O)N[C@@H](CC(C)C)[C@@H](O)C[C@@H](C)C(=O)N[C@H](C(=O)NCC(C)C)C(C)C)n1 (stereo partly drawn) [tert-butyl (2S)-2-(2-azido-3-(3,5-dimethyl-1H-pyrazol-1-yl)propanamido)-3-((4S,5S,7R)-5-hydroxy-8-((S)-1-(isobutylamino)-3-methyl-1-oxobutan-2-ylamino)-2,7-dimethyl-8-oxooctan-4-ylamino)-3-oxopropylcarbamate]	100 to 600 nM	< 100 nM	6000 to 100000 nM
Cc1csc(C[C@H](C)C(=O)N[C@@H](CNC(=O)OC(C)(C)C)C(=O)N[C@@H](Cc2cc(F)cc(F)c2)[C@@H](O)C[C@@H](C)C(=O)N[C@H](C(=O)NCC(C)C)C(C)C)n1 [tert-butyl (S)-3-((2S,3S,5R)-1-(3,5-difluorophenyl)-3-hydroxy-6-((S)-1-(isobutylamino)-3-methyl-1-oxobutan-2-ylamino)-5-methyl-6-oxohexan-2-ylamino)-2-((S)-2-methyl-3-(4-methylthiazol-2-yl)propanamido)-3-oxopropylcarbamate]	< 100 nM		6000 to 100000 nM
CC[C@@H](Cn1nc(C)cc1C)C(=O)N[C@@H](CNC(=O)OC(C)(C)C)C(=O)N[C@@H](CC(C)C)[C@@H](O)C[C@@H](C)C(=O)N[C@H](C(=O)NCc1ccncc1)C(C)C [tert-butyl (S)-2-((S)-2-((3,5-dimethyl-1H-pyrazol-1-yl)methyl)butanamido)-3-((4S,5S,7R)-5-hydroxy-2,7-dimethyl-8-((S)-3-methyl-1-oxo-1-(pyridin-4-ylmethylamino)butan-2-ylamino)-8-oxooctan-4-ylamino)-3-oxopropylcarbamate]	< 100 nM		< 6000 nM
CC[C@@H](Cn1nc(C)cc1C)C(=O)N[C@@H](CNC(=O)OC(C)(C)C)C(=O)N[C@@H](CC(C)C)[C@@H](O)C[C@@H](C)C(=O)N[C@H](C(=O)NCc1ccccn1)C(C)C [tert-butyl (S)-2-((S)-2-((3,5-dimethyl-1H-pyrazol-1-yl)methyl)butanamido)-3-((4S,5S,7R)-5-hydroxy-2,7-dimethyl-8-((S)-3-methyl-1-oxo-1-(pyridin-2-ylmethylamino)butan-2-ylamino)-8-oxooctan-4-ylamino)-3-oxopropylcarbamate]	< 100 nM		6000 to 100000 nM
CC[C@@H](Cc1nc(C)cs1)C(=O)N[C@@H](CN(C)OC)C(=O)N[C@@H](CC(C)C)[C@@H](O)C[C@@H](C)C(=O)N[C@H](C(=O)NCC(C)C)C(C)C [(2R,4S,5S)-4-hydroxy-N-((S)-1-(isobutylamino)-3-methyl-1-oxobutan-2-yl)-5-((S)-3-(methoxy(methyl)amino)-2-((S)-2-((4-methylthiazol-2-yl)methyl)butanamido)propanamido)-2,7-dimethyloctanamide]	100 to 600 nM		> 100000 nM
Cc1csc(COC(=O)N[C@@H](CC(N)=O)C(=O)N[C@@H](CC(C)C)[C@@H](O)C[C@@H](C)C(=O)N[C@H](C(=O)NCC(C)C)C(C)C)n1 [(4-methylthiazol-2-yl)methyl (S)-4-amino-1-((4S,5S,7R)-5-hydroxy-8-((S)-1-(isobutylamino)-3-methyl-1-oxobutan2-ylamino)-2,7-dimethyl-8-oxooctan-4-ylamino)-1,4-dioxobutan-2-ylcarbamate]	100 to 600 nM	> 600 nM	
CC[C@@H](Cn1nc(C)cc1C)C(=O)N[C@@H](CC(N)=O)C(=O)N[C@@H](CC(C)C)[C@@H](O)C[C@@H](C)C(=O)N[C@H](C(=O)NCC(C)C)C(C)C [(S)-2-((S)-2-((3,5-dimethyl-1H-pyrazol-1-yl)methyl)butanamido)-N1-((4S,5S,7R)-5-hydroxy-8-((S)-1-(isobutylamino)-3-methyl-1-oxobutan-2-ylamino)-2,7-dimethyl-8-oxooctan-4-yl)succinamide]	100 to 600 nM	< 100 nM	
COCO[C@@H](Cn1nc(C)cc1C)C(=O)N[C@@H](CNC(=O)OC(C)(C)C)C(=O)N[C@@H](CC(C)C)[C@@H](O)C[C@@H](C)C(=O)N[C@H](C(=O)NCC(C)C)C(C)C [tert-butyl (S)-2-((S)-3-(3,5-dimethyl-1H-pyrazol-1-yl)-2-(methoxymethoxy)propanamido)-3-((4S,5S,7R)-5-hydroxy-8-((S)-1-(isobutylamino)-3-methyl-1-oxobutan-2-ylamino)-2,7-dimethyl-8-oxooctan-4-ylamino)-3-oxopropylcarbamate]	100 to 600 nM	< 100 nM	
Cc1csc(C[C@H](C)C(=O)N[C@@H](CNC(=O)OC(C)(C)C)C(=O)N[C@@H](CC(C)C)[C@@H](O)C[C@@H](C)C(=O)N[C@H](CS(=O)(=O)CC(C)C)C(C)C)n1 [tert-butyl (S)-3-((4S,5S,7R)-5-hydroxy-8-((S)-1-(isobutylsulfonyl)-3-methylbutan-2-ylamino)-2,7-dimethyl-8-oxooctan-4-ylamino)-2-((S)-2-methyl-3-(4-methylthiazol-2-yl)propanamido)-3-oxopropylcarbamate]	> 600 nM	> 600 nM	
COCCOCCOC(=O)C[C@H](NC(=O)OCc1nc(C)oc1C)C(=O)N[C@@H](CC(C)C)[C@@H](O)C[C@@H](C)C(=O)N[C@H](C(=O)NCC(C)C)C(C)C [(S)-2-(2-methoxyethoxy)ethyl 3-(((2,5-dimethyloxazol-4-yl)methoxy)carbonylamino)-4-((4S,5S,7R)-5-hydroxy-8-((S)-1-(isobutylamino)-3-methyl-1-oxobutan-2-ylamino)2,7-dimethyl-8-oxooctan-4-ylamino)-4-oxobutanoate]	< 100 nM	< 100 nM	
